Measurements taken from publication PMC7393338 (Acta Pharmacologica Sinica, 2020).

Legend:
[1] = intratracheal administration versus other routes, rats
SARS-CoV-2 PLpro = SARS-CoV-2 PLpro (Severe acute respiratory syndrome coronavirus 2, UniProt P0DTD1); assay: biochemical; conditions: read-out: PLpro Inhibition (%)

O=c1cc(-c2ccccc2)oc2cc(O)c(O)c(O)c12 [Baicalein]
target tissue (lung) distribution [1]: significantly increase their target tissue distribution | inhibition at 50 µM (SARS-CoV-2 PLpro): < 50%
